{
  "source": "patent US20190191695A1",
  "about": "“DISSOLVENT COMPOSITION, STABLE UNDER COLD CONDITIONS” (OLEON NV, priority 2016, published 2019)",
  "format_in_all_cases": "physicochemical",
  "key": {"[1]": {"assay": "Density (viscometer/densimeter SVM 3000)", "method": "(§1) The equipment used is: • 15 mL flasks • A refrigerated cabinet at 0° C. (Panasonic—MR-154-PE) • 3 mL pipettes • An analytical balance (OHAUS Adventurer Pro AV264C) • A watch glass • A spatula • A tensiometer, brand name K100, sold by KRÜSS GmbH, Borsteler Chaussee 85, 22453 Hamburg, Germany. • A 70 mL crystallizing dish • A platinum blade • KRUSS laboratory software • A viscometer/densimeter SVM 3000—Anton Paar\n(§2) The compositions of formulae 19 to 23 and the dispersants of the prior art are tested for surface tension in order to find the wettability thereof, by using a fine plate (called a Wilhelmy plate) connected to an analytical balance. The method of the Wilhelmy blade on the K100 is used. A 70 mL crystallizing dish filled with 30 mL of product to be tested is placed in the K100. The platinum blade is arranged over the product. The KRUSS Laboratory software determines the surface tension of the liquid, via the force felt by the blade in the liquid. The viscosity and the density are also measured."}, "[2]": {"assay": "Viscosity (viscometer/densimeter SVM 3000)", "method": "as §1, §2"}, "[3]": {"assay": "Surface tension, Wilhelmy blade method on the K100 tensiometer", "method": "as §1, §2"}},
  "data": [
    {"smiles": "CN1CCCC1=O", "note": "[NMP, N-methyl-2-pyrrolidone]", "values": [
      {"measurement": "Density at 20° C.", "setting": "[1]", "result": 1.03, "unit": "g/mL"},
      {"measurement": "Viscosity at 20° C.", "setting": "[2]", "result": 1.7, "unit": "mm^2/s"},
      {"measurement": "Surface tension at 20° C.", "setting": "[3]", "result": 40, "unit": "mN/m"}
    ]}
  ]
}
